The test addresses T1, native (Human Hepatoma Huh-7) AhR receptor (Homo sapiens, UniProt P35869).
T1 construct: expression of native (Human Hepatoma Huh-7) AhR receptor reporter gene cells; endogenous in cells; host or cells: Human hepatoma Huh-7 cells carrying a firefly luciferase reporter vector
T1 sequence (P35869 11-848): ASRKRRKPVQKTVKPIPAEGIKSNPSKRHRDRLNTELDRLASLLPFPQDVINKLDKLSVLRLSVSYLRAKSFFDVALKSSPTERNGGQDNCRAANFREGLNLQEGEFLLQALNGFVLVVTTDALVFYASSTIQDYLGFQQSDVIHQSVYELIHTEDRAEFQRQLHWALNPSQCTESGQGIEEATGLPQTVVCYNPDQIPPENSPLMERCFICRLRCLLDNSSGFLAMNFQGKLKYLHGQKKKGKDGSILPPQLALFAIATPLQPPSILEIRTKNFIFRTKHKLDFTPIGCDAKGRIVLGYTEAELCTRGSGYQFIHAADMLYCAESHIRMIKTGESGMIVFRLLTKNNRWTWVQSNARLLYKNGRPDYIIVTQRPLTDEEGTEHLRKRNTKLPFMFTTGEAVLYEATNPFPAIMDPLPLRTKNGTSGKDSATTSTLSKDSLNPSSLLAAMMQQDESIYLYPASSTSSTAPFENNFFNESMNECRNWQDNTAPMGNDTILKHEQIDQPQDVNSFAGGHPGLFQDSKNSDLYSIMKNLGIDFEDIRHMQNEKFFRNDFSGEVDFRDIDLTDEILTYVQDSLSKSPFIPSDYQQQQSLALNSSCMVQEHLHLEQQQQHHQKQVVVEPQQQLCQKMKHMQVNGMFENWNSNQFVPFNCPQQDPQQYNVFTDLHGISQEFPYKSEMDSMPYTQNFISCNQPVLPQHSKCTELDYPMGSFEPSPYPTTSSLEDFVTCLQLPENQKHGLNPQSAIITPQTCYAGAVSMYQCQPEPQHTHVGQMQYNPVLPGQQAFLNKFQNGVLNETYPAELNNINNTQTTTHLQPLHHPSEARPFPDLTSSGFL
Briefly: AhR agonism assay (luciferase reporter gene cells). It counts as cell-based. How it is done: Assay Materials (plasmids): expression of native (Human Hepatoma Huh-7) AhR receptor reporter gene cells, the reporter vector includes functional firefly luciferase gene linked to upstream receptor-specific genetic response elements (GRE).
The AhR agonism assay comprises the following three steps:
1. Cell implantation: a suspension of AhR receptor cells was prepared in cell recovery medium (CRM; FBS containing 10% activated carbon). Then, the prepared suspension (100 μl) was dispensed into wells of a white 96-well culture plate.
2. Right before the beginning of the experiment, Master Stocks were diluted to “2× concentration” treatment media with appropriate compound screening media (CSM: FBS containing 10% activated carbon). The test compounds were subjected to gradient dilution with CSM medium containing 0.2% DMSO, so that the final concentration of DMSO in each experimental well for each treatment group was 0.1%. […] The experimental plate was placed in an incubator at 37° C. for 24 h.
3. Fluorescence detection and analysis: after completion of the incubation, the treatment media were discarded and 100 μL/well of luciferase detection reagent was added. The Ave RLU (average relative fluorescence intensity) of each well and the coefficient of variation for each experimental group were determined. The activity of AhR receptor with various concentrations of the test compounds was quantitatively determined using a ratio of Ave RLU^Test Cmpd of various concentrations of the test compounds in the experimental group to Ave RLU^Vehicle of the blank control group, and fold activation and EC50 were determined.
For data processing method, refer to J. Biomol.

Where two headings read alike, the source gives them in different places.

The text below walks through data of patent publication US20190307731A1, “ARYL HYDROCARBON RECEPTOR MODULATOR” (Ariagen, Inc., priority 2016, published 2019).

With `CC(C)c1ncc(C(=O)c2c[nH]c3ccccc23)s1` [Compound 10], the EC50 (as a rule, the concentration that produces a half-maximal response) (AhR receptor reporter gene cells, 24 h incubation at 37° C., luciferase readout, read-out: EC50) was 10 to 100 µM.
The compound `COC(=O)c1nsc(C(=O)c2c[nH]c3ccc(F)cc23)n1` [Compound 13] came in with an EC50 of 1 to 10 µM.
Same read-out and setting: next, `COC(=O)c1nsc(C(=O)c2c[nH]c3ccc(OC)cc23)n1` [Compound 14]: 1 to 10 µM.
